The target of this assay is T1, human TLR8 (Homo sapiens, UniProt Q9NR97).
T1 construct: host or cells: HEK293 (HEK-Blue hTLR8)
T1 sequence (Q9NR97 27-1041): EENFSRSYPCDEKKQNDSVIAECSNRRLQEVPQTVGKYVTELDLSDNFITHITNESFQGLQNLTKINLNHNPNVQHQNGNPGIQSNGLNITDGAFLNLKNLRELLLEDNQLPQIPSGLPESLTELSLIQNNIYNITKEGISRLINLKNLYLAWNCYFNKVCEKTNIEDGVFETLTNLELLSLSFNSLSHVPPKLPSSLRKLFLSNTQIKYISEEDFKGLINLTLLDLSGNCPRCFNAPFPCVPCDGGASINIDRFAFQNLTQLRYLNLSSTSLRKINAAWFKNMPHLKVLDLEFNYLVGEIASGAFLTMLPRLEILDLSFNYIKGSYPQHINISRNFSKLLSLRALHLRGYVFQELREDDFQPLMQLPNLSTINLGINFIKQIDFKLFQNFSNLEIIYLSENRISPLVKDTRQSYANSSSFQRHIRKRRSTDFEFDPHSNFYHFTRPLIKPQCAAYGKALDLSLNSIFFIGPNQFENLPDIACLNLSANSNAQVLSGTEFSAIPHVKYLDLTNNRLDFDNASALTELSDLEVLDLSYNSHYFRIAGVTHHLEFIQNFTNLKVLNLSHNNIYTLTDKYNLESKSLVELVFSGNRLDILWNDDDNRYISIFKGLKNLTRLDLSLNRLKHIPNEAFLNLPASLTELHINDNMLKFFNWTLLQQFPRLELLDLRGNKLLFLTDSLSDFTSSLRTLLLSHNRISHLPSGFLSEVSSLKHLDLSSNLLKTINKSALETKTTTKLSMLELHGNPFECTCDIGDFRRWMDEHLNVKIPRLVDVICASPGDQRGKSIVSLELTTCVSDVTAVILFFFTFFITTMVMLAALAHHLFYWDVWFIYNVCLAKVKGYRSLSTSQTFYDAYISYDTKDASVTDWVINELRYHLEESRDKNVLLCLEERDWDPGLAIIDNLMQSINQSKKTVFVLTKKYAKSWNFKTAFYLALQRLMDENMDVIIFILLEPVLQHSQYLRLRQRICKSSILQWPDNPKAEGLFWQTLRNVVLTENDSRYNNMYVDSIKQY
The experiment in a line: HEK293-Blue-hTLR-8 cells assay (SEAP reporter, R848 stimulation). The following applies: HEK293-Blue-hTLR8 cells, R848, 20 hrs; read-out: HEK/hTLR8 IC50. Format: cell-based. Put shortly:
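HEK293-Blue-hTLR8 cells (NF-κB/AP-1-driven SEAP) incubated 20 h at 37° C with serially diluted compound (1% DMSO) plus R848 stimulation. Supernatant SEAP measured with QUANTI-Blue, 2 h at 37° C, absorbance 620–655 nm.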
As to `Cc1cc(N2CCN(C[C@H]3CN(c4ccc(C#N)c5ncccc45)C[C@@H](C)O3)CC2)nc(N2CCC(N)C(F)(F)C2)n1` (stereo partly drawn) [Example 86, 5-[(2S,6R)-2-[[4-[2-(4-amino-3,3-difluoro-1-piperidyl)-6-methyl-pyrimidin-4-yl]piperazin-1-yl]methyl]-6-methyl-morpholin-4-yl]quinoline-8-carbonitrile], the IC50 was found to be 6 nM.
As for `Cc1cc(N2CCN(C[C@H]3CN(c4ccc(C#N)c5ncccc45)C[C@@H](C)O3)CC2)nc(NC2CNCC2F)n1` (stereo in doubt) [Example 73, 5-[(2S,6R)-2-[[4-[2-[[(3S,4R)-4-fluoropyrrolidin-3-yl]amino]-6-methyl-pyrimidin-4-yl]piperazin-1-yl]methyl]-6-methyl-morpholin-4-yl]quinoline-8-carbonitrile], the figure is 17 nM; as for `Cc1cc(N2CCN(C[C@H]3CN(c4ccc(C#N)c5ncccc45)C[C@@H](C)O3)CC2)nc(N2CC[C@@H](N)[C@@H](F)C2)n1` [Example 78, 5-[(2S,6R)-2-[[4-[2-[(3S,4R)-4-amino-3-fluoro-1-piperidyl]-6-methyl-pyrimidin-4-yl]piperazin-1-yl]methyl]-6-methyl-morpholin-4-yl]quinoline-8-carbonitrile], 1 nM.
As for `Cc1cc(N2CCN(C[C@H]3CN(c4ccc(C#N)c5ncccc45)C[C@@H](C)O3)CC2)nc(N[C@@H]2CNC[C@@H]2F)n1` [Example 71, 5-[(2S,6R)-2-[[4-[2-[[(3R,4S)-4-fluoropyrrolidin-3-yl]amino]-6-methyl-pyrimidin-4-yl]piperazin-1-yl]methyl]-6-methyl-morpholin-4-yl]quinoline-8-carbonitrile], the figure is 15 nM.
In the case of `CO[C@@H]1CN(c2nc(C)cc(N3CCN(C[C@H]4CN(c5ccc(C#N)c6ncccc56)C[C@@H](C)O4)CC3)n2)C[C@@H]1N` [Example 72, 5-[(2S,6R)-2-[[4-[2-[(3S,4R)-3-amino-4-methoxy-pyrrolidin-1-yl]-6-methyl-pyrimidin-4-yl]piperazin-1-yl]methyl]-6-methyl-morpholin-4-yl]quinoline-8-carbonitrile], the IC50 amounted to 3 nM.
For the molecule `C[C@@H]1CN(c2ccc(C#N)c3ncccc23)C[C@H](CN2CCN(c3ccccc3C3CNCCO3)CC2)O1` (stereo partly drawn) [Example 89, 5-[(2R,6S)-2-methyl-6-[[4-(2-morpholin-2-ylphenyl)piperazin-1-yl]methyl]morpholin-4-yl]quinoline-8-carbonitrile], the IC50 is 29 nM.
Under `Cc1cc(N2CCN(C[C@H]3CN(c4ccc(C#N)c5ncccc45)C[C@@H](C)O3)CC2)nc(N2CC[C@@H](F)[C@@H](N)C2)n1` [Example 83, 5-[(2R,6S)-2-methyl-6-[[4-[6-methyl-2-[(3S,4R)-3-amino-4-fluoro-1-piperidyl]-pyrimidin-4-yl]piperazin-1-yl]methyl]morpholin-4-yl]quinoline-8-carbonitrile] stands 3 nM; under `Cc1cc(N2CCN(C[C@H]3CN(c4ccc(C#N)c5ncccc45)C[C@@H](C)O3)CC2)nc(N2CC(N)CC(F)(F)C2)n1` (stereo partly drawn) [Example 80, 5-[(2S,6R)-2-[[4-[2-(5-amino-3,3-difluoro-1-piperidyl)-6-methyl-pyrimidin-4-yl]piperazin-1-yl]methyl]-6-methyl-morpholin-4-yl]quinoline-8-carbonitrile], 6 nM; under `CO[C@H]1CN(c2nc(C)cc(N3CCN(C[C@H]4CN(c5ccc(C#N)c6ncccc56)C[C@@H](C)O4)CC3)n2)CCC1N` (stereo in doubt) [Example 90, 5-[(2S,6R)-2-[[4-[2-[(3S,4S)-4-amino-3-methoxy-1-piperidyl]-6-methyl-pyrimidin-4-yl]piperazin-1-yl]methyl]-6-methyl-morpholin-4-yl]quinoline-8-carbonitrile], 2 nM.
Under `Cc1cc(N2CCN(C[C@H]3CN(c4ccc(C#N)c5ncccc45)C[C@@H](C)O3)CC2)nc(N2C[C@H](N)C[C@@H](F)C2)n1` (relative stereo) [Example 75, 5-[(2R,6S)-2-methyl-6-[[4-[6-methyl-2-[trans-3-amino-5-fluoro-1-piperidyl]pyrimidin-4-yl]piperazin-1-yl]methyl]morpholin-4-yl]quinoline-8-carbonitrile] stands 3 nM; under `CO[C@@H]1CN(c2nc(C)cc(N3CCN(C[C@H]4CN(c5ccc(C#N)c6ncccc56)C[C@@H](C)O4)CC3)n2)C[C@H]1N` (single isomer, unassigned) [Example 69B], 2 nM.
Consider `Cc1cc(N2CCN(C[C@H]3CN(c4ccc(C#N)c5ncccc45)C[C@@H](C)O3)CC2)nc(N2C[C@H](N)C[C@H](F)C2)n1` (relative stereo) [Example 74, 5-[(2R,6S)-2-methyl-6-[[4-[6-methyl-2-[cis-3-amino-5-fluoro-1-piperidyl]pyrimidin-4-yl]piperazin-1-yl]methyl]morpholin-4-yl]quinoline-8-carbonitrile], for which the IC50 worked out at 3 nM.
Under `Cc1cc(N2CCN(C[C@H]3CN(c4ccc(C#N)c5ncccc45)C[C@@H](C)O3)CC2)nc(N2CC[C@@H](F)C(N)C2)n1` (single isomer, unassigned) [Example 84] stands 7 nM; under `COC1CNCC1Nc1nc(C)cc(N2CCN(C[C@H]3CN(c4ccc(C#N)c5ncccc45)C[C@@H](C)O3)CC2)n1` (stereo in doubt) [Example 70, 5-[(2S,6R)-2-[[4-[2-[[(3R,4R)-4-methoxypyrrolidin-3-yl]amino]-6-methyl-pyrimidin-4-yl]piperazin-1-yl]methyl]-6-methyl-morpholin-4-yl]quinoline-8-carbonitrile], 12 nM; under `Cc1cc(N2CCN(C[C@H]3CN(c4ccc(C#N)c5ncccc45)C[C@@H](C)O3)CC2)nc(N2C[C@@H](N)C[C@@H](F)C2)n1` [Example 77, 5-[(2S,6R)-2-[[4-[2-[(3S,5R)-3-amino-5-fluoro-1-piperidyl]-6-methyl-pyrimidin-4-yl]piperazin-1-yl]methyl]-6-methyl-morpholin-4-yl]quinoline-8-carbonitrile], 2 nM.
Under `Cc1cc(N2CCN(C[C@H]3CN(c4ccc(C#N)c5ncccc45)C[C@@H](C)O3)CC2)nc(N2C[C@@H](N)[C@H](F)C2)n1` [Example 79, 5-[(2S,6R)-2-[[4-[2-[(3R,4R)-3-amino-4-fluoro-pyrrolidin-1-yl]-6-methyl-pyrimidin-4-yl]piperazin-1-yl]methyl]-6-methyl-morpholin-4-yl]quinoline-8-carbonitrile] stands 2 nM; under `Cc1cc(N2CCN(C[C@H]3CN(c4ccc(C#N)c5ncccc45)C[C@@H](C)O3)CC2)nc(N2CC[C@@H](N)C(F)C2)n1` (stereo in doubt) [Example 82, 5-[(2S,6R)-2-[[4-[2-[(3R,4R)-4-amino-3-fluoro-1-piperidyl]-6-methyl-pyrimidin-4-yl]piperazin-1-yl]methyl]-6-methyl-morpholin-4-yl]quinoline-8-carbonitrile], 1 nM.
As for `Cc1cc(N2CCN(C[C@H]3CN(c4ccc(C#N)c5ncccc45)C[C@@H](C)O3)CC2)nc(N[C@@H]2CNC[C@H]2F)n1` [Example 76, 5-[(2S,6R)-2-[[4-[2-[[(3R,4R)-4-fluoropyrrolidin-3-yl]amino]-6-methyl-pyrimidin-4-yl]piperazin-1-yl]methyl]-6-methyl-morpholin-4-yl]quinoline-8-carbonitrile], the figure is 3 nM.
For `Cc1cc(N2CCN(C[C@H]3CN(c4ccc(C#N)c5ncccc45)C[C@@H](C)O3)CC2)nc(N2CCNC(C(C)(C)O)C2)n1` (stereo partly drawn) [Example 81, 5-[(2S,6R)-2-[[4-[2-[3-(1-hydroxy-1-methyl-ethyl)piperazin-1-yl]-6-methyl-pyrimidin-4-yl]piperazin-1-yl]methyl]-6-methyl-morpholin-4-yl]quinoline-8-carbonitrile], the IC50 was 2 nM.
As for `Cc1cc(N2CCN(C[C@H]3CN(c4ccc(C#N)c5ncccc45)C[C@@H](C)O3)CC2)nc(N2CC(N)C2)n1` [Example 87, 5-[(2S,6R)-2-[[4-[2-(3-aminoazetidin-1-yl)-6-methyl-pyrimidin-4-yl]piperazin-1-yl]methyl]-6-methyl-morpholin-4-yl]quinoline-8-carbonitrile], the IC50 amounted to 2 nM.
As to `CO[C@H]1CN(c2nc(C)cc(N3CCN(C[C@H]4CN(c5ccc(C#N)c6ncccc56)C[C@@H](C)O4)CC3)n2)C[C@@H]1N` (single isomer, unassigned) [Example 69A], the IC50 was determined as 2 nM.
`COC1CN(c2nc(C)cc(N3CCN(C[C@H]4CN(c5ccc(C#N)c6ncccc56)C[C@@H](C)O4)CC3)n2)CC1N` (single isomer, unassigned) [Example 88]: the IC50 stood at 2 nM.
